As a reminder, the IC50 is the concentration that gives 50% inhibition. A low value points to greater potency in that assay.

This note sets out measurements from patent US20110105540A1, “2-AMINO-9-[4-(4-METHOXY-PHENOXY)-PIPERIDIN-1-YL]-4-PHENYL-INDENO[1,2-D]PYRIMIDIN-5-ONE AND ITS USE AS A HIGHLY SELECTIVE ADENOSINE A2a RECEPTOR ANTAGONIST” (priority 2009, published 2011).

Assay [1] addresses T1, human adenosine A2A receptor (Homo sapiens, UniProt P29274).
T1 construct: expressed in transfected cells; host or cells: CHO-K1
The experiment in a line: Adenosine A2A Receptor Functional Assay (A2AGAL2). Type of assay: cell-based. The method, then: To initiate the functional assay, cryopreserved CHO-K1 cells overexpressing the human adenosine A2A receptor and containing a cAMP inducible beta-galactosidase reporter gene were thawed, centrifuged, DMSO containing media removed, and then seeded with fresh culture media into clear 384-well tissue culture treated plates (BD #353961) at a concentration of 10K cells/well. Prior to assay, these plates were cultured for two days at 37° C., 5% CO2, 90% Rh. On the day of the functional assay, culture media was removed and replaced with 45 μL assay medium (Hams/F-12 Modified (Mediatech #10-080CV) supplemented w/0.1% BSA). Test compounds were diluted and 11 point curves created at a 1000× concentration in 100% DMSO. Immediately after addition of assay media to the cell plates, 50 nL of the appropriate test compound antagonist or agonist control curves were added to cell plates using a Cartesian Hummingbird. Compound curves were allowed to incubate at room temperature on cell plates for approximately 15 minutes before addition of a 15 nM NECA (Sigma E2387) agonist challenge (5 μL volume). […]
The colorimetric reaction was stopped with the addition of 60 μL/well 1M sodium carbonate. Plates were counted at 405 nm on a SpectraMax Microplate Reader (Molecular Devices). Data was analyzed in Microsoft Excel and IC/EC50 curves were fit using a standardized macro.

For assay [2], the target named is T2, human adenosine A1 receptor (Homo sapiens, UniProt P30542).
T2 construct: expressed in transfected cells; host or cells: CHO-K1
T2 sequence (P30542 1-326): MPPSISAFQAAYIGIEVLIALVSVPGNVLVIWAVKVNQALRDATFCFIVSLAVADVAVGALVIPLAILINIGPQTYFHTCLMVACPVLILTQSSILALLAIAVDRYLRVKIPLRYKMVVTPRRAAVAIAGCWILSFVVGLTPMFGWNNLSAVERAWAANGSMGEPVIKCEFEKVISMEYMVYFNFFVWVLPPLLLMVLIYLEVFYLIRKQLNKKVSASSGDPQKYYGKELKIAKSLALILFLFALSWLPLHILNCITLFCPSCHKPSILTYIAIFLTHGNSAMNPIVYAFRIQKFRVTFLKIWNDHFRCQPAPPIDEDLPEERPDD
The experiment in a line: Adenosine A1 Receptor Functional Assay (A1GAL2). The following applies: CHO-K1 cells overexpressing human A1 receptor, cAMP inducible beta-galactosidase reporter, 4 nM r-PIA/1 uM Forskolin agonist challenge. Type of assay: cell-based. The method, then: To initiate the functional assay, cryopreserved CHO-K1 cells overexpressing the human adenosine A1 receptor and containing a cAMP inducible beta-galactosidase reporter gene were thawed, centrifuged, DMSO containing media removed, and then seeded with fresh culture media into clear 384-well tissue culture treated plates (BD #353961) at a concentration of 10K cells/well. Prior to assay, these plates were cultured for two days at 37° C., 5% CO2, 90% Rh. On the day of the functional assay, culture media was removed and replaced with 45 μL assay medium (Hams/F-12 Modified (Mediatech #10-080CV) supplemented w/0.1% BSA). Test compounds were diluted and 11 point curves created at a 1000× concentration in 100% DMSO. Immediately after addition of assay media to the cell plates, […] of the appropriate test compound antagonist or agonist control curves were added to cell plates using a Cartesian Hummingbird. Compound curves were allowed to incubate at room temperature on cell plates for approximately 15 minutes before addition of a 4 nM r-PIA (Sigma P4532)/1 uM Forskolin (Sigma F3917) agonist challenge (5 μL volume). […] Plates were counted at 405 nm on a SpectraMax Microplate Reader (Molecular Devices). Data was analyzed in Microsoft Excel and IC/EC50 curves were fit using a standardized macro.

T1 sequence (P29274 whole entry): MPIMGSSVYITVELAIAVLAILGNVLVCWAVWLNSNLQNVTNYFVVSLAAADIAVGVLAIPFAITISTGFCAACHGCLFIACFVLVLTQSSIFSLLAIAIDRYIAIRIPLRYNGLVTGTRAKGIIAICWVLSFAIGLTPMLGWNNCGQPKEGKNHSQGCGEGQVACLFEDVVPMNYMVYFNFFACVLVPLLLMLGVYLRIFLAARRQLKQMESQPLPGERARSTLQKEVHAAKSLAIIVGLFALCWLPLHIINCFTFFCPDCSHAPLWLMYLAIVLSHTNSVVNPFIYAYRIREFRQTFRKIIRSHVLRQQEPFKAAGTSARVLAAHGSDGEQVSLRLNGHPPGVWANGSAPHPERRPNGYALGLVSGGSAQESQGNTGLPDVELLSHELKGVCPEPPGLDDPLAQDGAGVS

Take `COc1ccc(OC2CCN(c3cccc4c3-c3nc(N)nc(-c5ccccc5)c3C4=O)CC2)cc1` [Example A, 2-Amino-9-[4-(4-methoxy-phenoxy)-piperidin-1-yl]-4-phenyl-indeno[1,2-d]pyrimidin-5-one]: the IC50 in assay [1] (CHO-K1 cells overexpressing human A2A receptor, cAMP inducible beta-galactosidase reporter, 15 nM NECA agonist challenge) was 0.0023 µM; in assay [2] it was 7.3 µM. Also, the A1/A2A in assay [1] (ratio of A1Gal2 to A2AGal2 values (selectivity for A2A over A1)) was found to be 3173.91.
